Measurements reported in the supplement of paper PMC10307832.

Columns and labels:
Experiment in all cases: relative viability (nuclei count vs DMSO), 5 days (fraction); higher = more cells survive
[1] = compound: CN1CCN(CC1)C2=CC(=C(C=C2)NC3=NC(=C(S3)C(=O)C4=C(C=CC=C4Cl)Cl)N)OC [XMD14-99] + CC(C)C[C@H](NC(=O)[C@H](Cc1ccccc1)NC(=O)c1cnccn1)B(O)O [Bortezomib] (partner 0.002 µM)
Method in brief: (§1)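 Lung cancer cell lines, seeded in 1536-well plates, were treated the following day by pin tool with a single drug or with five library-drug doses (not always all listed) in √10 steps on top of a fixed anchor-drug dose. Cells were fixed and nuclei stained in one step after 5 days, and nuclei were counted. Relative viability is the nuclei count for treated wells divided by that for vehicle wells, reported as medians of duplicate plates.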

[2] = compound: CN1CCN(CC1)C2=CC(=C(C=C2)NC3=NC(=C(S3)C(=O)C4=C(C=CC=C4Cl)Cl)N)OC [XMD14-99] + CCNC(=O)c1noc(-c2cc(C(C)C)c(O)cc2O)c1-c1ccc(CN2CCOCC2)cc1 [Luminespib] (partner 0.01 µM)
Method in brief: as §1

[3] = compound: CN1CCN(CC1)C2=CC(=C(C=C2)NC3=NC(=C(S3)C(=O)C4=C(C=CC=C4Cl)Cl)N)OC [XMD14-99] + C[C@@H](Oc1cc(-c2cnn(C3CCNCC3)c2)cnc1N)c1c(Cl)ccc(F)c1Cl [Crizotinib] (partner 1 µM)
Method in brief: as §1

[4] = compound: CN1CCN(CC1)C2=CC(=C(C=C2)NC3=NC(=C(S3)C(=O)C4=C(C=CC=C4Cl)Cl)N)OC [XMD14-99] + O=C(CCCCCCC(=O)Nc1ccccc1)NO [Vorinostat] (partner 1 µM)
Method in brief: as §1

Cell Line: UMC-11
- relative viability ([1]; first compound 0.08 µM): 0.701
- relative viability ([1]; first compound 0.8 µM): 0.775
- relative viability ([1]; first compound 2.53 µM): 0.673
- relative viability ([1]; first compound 8 µM): 0.526
- relative viability ([2]; first compound 0.08 µM): 0.98
- relative viability ([2]; first compound 0.8 µM): 1.05
- relative viability ([2]; first compound 2.53 µM): 0.98
- relative viability ([2]; first compound 8 µM): 0.828
- relative viability ([3]; first compound 0.08 µM): 0.619
- relative viability ([3]; first compound 0.8 µM): 0.582
- relative viability ([3]; first compound 2.53 µM): 0.721
- relative viability ([3]; first compound 8 µM): 0.577
- relative viability ([4]; first compound 0.08 µM): 0.422
- relative viability ([4]; first compound 0.8 µM): 0.352
- relative viability ([4]; first compound 2.53 µM): 0.416
- relative viability ([4]; first compound 8 µM): 0.346
